How the values were obtained:
Karpas-45 = assay: cell viability assay; format: cell-based, human; settings: Karpas-45 T-cell lymphoma, 72 h, with respect to untreated control cells
SK-BR-3 (Breast) = assay: NCI60 panel IC50; format: cell-based; settings: Homo sapiens
Procedure: (§1) On the other hand, the values of IC50 were determined in the panel of NCl60 cell lines for compound 10.
(§2) A total of 2 independent experiments were carried out with assays in triplicate for the compound and cell line. All those assays where an IC50 value was not reached in the highest concentration of 1E-05 M are represented by “>1E-05”. In these cases, the standard deviation cannot be calculated and for that reason it is calculated as “-”.

CCRF-CEM (Leukaemia) = assay: NCI60 panel IC50; format: cell-based; settings: Homo sapiens
Procedure: as §1, §2

SF-295 (CNS) = assay: NCI60 panel IC50; format: cell-based; settings: Homo sapiens
Procedure: as §1, §2

MDA-MB-435 S (Breast) = assay: NCI60 panel IC50; format: cell-based; settings: Homo sapiens
Procedure: as §1, §2

SK-MEL-2 (Melanoma) = assay: NCI60 panel IC50; format: cell-based; settings: Homo sapiens
Procedure: as §1, §2

SNB-19 (CNS) = assay: NCI60 panel IC50; format: cell-based; settings: Homo sapiens
Procedure: as §1, §2

COLO-205 (Colon) = assay: NCI60 panel IC50; format: cell-based; settings: Homo sapiens
Procedure: as §1, §2

ADR-RE-3 (Breast) = assay: NCI60 panel IC50; format: cell-based; settings: Homo sapiens
Procedure: as §1, §2

K-562 (Leukaemia) = assay: NCI60 panel IC50; format: cell-based; settings: Homo sapiens, K562
Procedure: as §1, §2

A549 (Lung) = assay: NCI60 panel IC50; format: cell-based; settings: Homo sapiens
Procedure: as §1, §2

HOP-92 (Lung) = assay: NCI60 panel IC50; format: cell-based; settings: Homo sapiens
Procedure: as §1, §2

MDA-MB-231 (Breast) = assay: NCI60 panel IC50; format: cell-based; settings: Homo sapiens
Procedure: as §1, §2

RXF-393 (Renal) = assay: NCI60 panel IC50; format: cell-based; settings: Homo sapiens
Procedure: as §1, §2

SN 12C (Renal) = assay: NCI60 panel IC50; format: cell-based; settings: Homo sapiens, SN12C
Procedure: as §1, §2

MDA-MB-468 (Breast) = assay: NCI60 panel IC50; format: cell-based; settings: Homo sapiens
Procedure: as §1, §2

TK-10 (Renal) = assay: NCI60 panel IC50; format: cell-based; settings: Homo sapiens
Procedure: as §1, §2

DMS-114 (Lung) = assay: NCI60 panel IC50; format: cell-based; settings: Homo sapiens
Procedure: as §1, §2

Hs-578-T (Breast) = assay: NCI60 panel IC50; format: cell-based; settings: Homo sapiens
Procedure: as §1, §2

NCI-H460 (Lung) = assay: NCI60 panel IC50; format: cell-based; settings: Homo sapiens
Procedure: as §1, §2

Sw-620 (Colon) = assay: NCI60 panel IC50; format: cell-based; settings: Homo sapiens
Procedure: as §1, §2

EKVX (Lung) = assay: NCI60 panel IC50; format: cell-based; settings: Homo sapiens
Procedure: as §1, §2

SW-480 (Colon) = assay: NCI60 panel IC50; format: cell-based; settings: Homo sapiens, SW480
Procedure: as §1, §2

SK-OV-3 (Ovarian) = assay: NCI60 panel IC50; format: cell-based; settings: Homo sapiens
Procedure: as §1, §2

A-498 (Renal) = assay: NCI60 panel IC50; format: cell-based; settings: Homo sapiens, A498
Procedure: as §1, §2

M-14 (Melanoma) = assay: NCI60 panel IC50; format: cell-based; settings: Homo sapiens, M14
Procedure: as §1, §2

SHP-77 (Lung) = assay: NCI60 panel IC50; format: cell-based; settings: Homo sapiens, SHP77
Procedure: as §1, §2

SF-268 (CNS) = assay: NCI60 panel IC50; format: cell-based; settings: Homo sapiens, 2 experiments in triplicate
Procedure: as §1, §2

BT-549 (Breast) = assay: NCI60 panel IC50; format: cell-based; settings: Homo sapiens
Procedure: as §1, §2

DU-145 (Prostate) = assay: NCI60 panel IC50; format: cell-based; settings: Homo sapiens
Procedure: as §1, §2

MOLT-4 (Leukaemia) = assay: NCI60 panel IC50; format: cell-based; settings: Homo sapiens
Procedure: as §1, §2

MCF-7 (Breast) = assay: NCI60 panel IC50; format: cell-based; settings: Homo sapiens, MCF7
Procedure: as §1, §2

T47-D (Breast) = assay: NCI60 panel IC50; format: cell-based; settings: Homo sapiens, T47D
Procedure: as §1, §2

HCT-116 (Colon) = assay: NCI60 panel IC50; format: cell-based; settings: Homo sapiens
Procedure: as §1, §2

MALME-3M (Melanoma) = assay: NCI60 panel IC50; format: cell-based; settings: Homo sapiens
Procedure: as §1, §2

HOP-62 (Lung) = assay: NCI60 panel IC50; format: cell-based; settings: Homo sapiens
Procedure: as §1, §2

U-251 (CNS) = assay: NCI60 panel IC50; format: cell-based; settings: Homo sapiens
Procedure: as §1, §2

OVCAR-3 (Ovarian) = assay: NCI60 panel IC50; format: cell-based; settings: Homo sapiens
Procedure: as §1, §2

SF539 (Astrocytoma) = assay: NCI60 panel IC50; format: cell-based; settings: Homo sapiens, SF-539
Procedure: as §1, §2

Granta-519 = assay: cell viability assay; format: cell-based, human; settings: Granta-519 B-cell lymphoma (MCL), 48 h, with respect to untreated control cells
Jeko-1 = assay: cell viability assay; format: cell-based, human
Procedure: The IC50 in cell viability assays were determined for some of the macrocycles prepared in Jeko-1 (B-cell lymphoma (MCL) type cells. With a total incubation period of 48 h.

JVM-2 = assay: cell viability assay; format: cell-based, human; settings: JVM-2 B-cell lymphoma (MCL), 48 h, with respect to untreated control cells

CN1CCCNc2c(c(=O)c2=O)NCCCN(C)CCCNc2c(c(=O)c2=O)NCCCN(C)CCCNc2c(c(=O)c2=O)NCCCN(C)CCCNc2c(c(=O)c2=O)NCCCN(C)CCCNc2c(c(=O)c2=O)NCCC1 [Compound 10]
% Cell viability (Karpas-45): 13%
IC50 (SK-BR-3 (Breast)): 0.308 µM
IC50 (CCRF-CEM (Leukaemia)): 2.09 µM
IC50 (SF-295 (CNS)): 5.52 µM
IC50 (MDA-MB-435 S (Breast)): 3.66 µM
IC50 (SK-MEL-2 (Melanoma)): 3.29 µM
IC50 (SNB-19 (CNS)): 1.81 µM
IC50 (COLO-205 (Colon)): 3.23 µM
IC50 (ADR-RE-3 (Breast)): 1.62 µM
IC50 (K-562 (Leukaemia)): 4.07 µM
IC50 (A549 (Lung)): 5.29 µM
IC50 (HOP-92 (Lung)): 3.53 µM
IC50 (MDA-MB-231 (Breast)): 2.32 µM
IC50 (RXF-393 (Renal)): 2.77 µM
IC50 (SN 12C (Renal)): 4.12 µM
IC50 (MDA-MB-468 (Breast)): 2.37 µM
IC50 (TK-10 (Renal)): 3.36 µM
IC50 (DMS-114 (Lung)): 8.72 µM
IC50 (Hs-578-T (Breast)): 7.79 µM
IC50 (NCI-H460 (Lung)): 6.88 µM
IC50 (Sw-620 (Colon)): 9.41 µM
IC50 (EKVX (Lung)): 2.75 µM
IC50 (SW-480 (Colon)): 1.8 µM
IC50 (SK-OV-3 (Ovarian)): 3.1 µM
IC50 (A-498 (Renal)): 7.5 µM
IC50 (M-14 (Melanoma)): 7.21 µM
IC50 (SHP-77 (Lung)): 2.9 µM
IC50 (SF-268 (CNS)): 5.61 µM
IC50 (BT-549 (Breast)): 2.21 µM
IC50 (DU-145 (Prostate)): 1.8 µM
IC50 (MOLT-4 (Leukaemia)): 1.36 µM
IC50 (MCF-7 (Breast)): 4.67 µM
IC50 (T47-D (Breast)): 1.89 µM
IC50 (HCT-116 (Colon)): 2.98 µM
IC50 (MALME-3M (Melanoma)): 9.28 µM
IC50 (HOP-62 (Lung)): 6.37 µM
IC50 (U-251 (CNS)): 7.86 µM
IC50 (OVCAR-3 (Ovarian)): 5.07 µM
IC50 (SF539 (Astrocytoma)): 3.52 µM
% Cell viability (Granta-519): 58%
IC50 (Jeko-1; Homo sapiens, JeKo-1, 48 h, cell viability, total incubation period 48 h, read-out: IC50 (μM) against Jeko-1 cells): 30.7 µM
% Cell viability (Jeko-1; Jeko-1 B-cell lymphoma (MCL), 48 h, with respect to untreated control cells): 46%
% Cell viability (JVM-2): 24%

Reference: patent US20110294772A1, “USE OF CYCLOSQUARAMIDE COMPOUNDS AS ANTI-TUMOUR AGENTS” (priority 2008, published 2011)
